# Test results taken from US20260166122A1, “USE OF MICROPEPTIDE MIAC” (NANJING ANJI BIOTECHNOLOGY CO., LTD, priority 2023, published 2026).
# Like-named read-outs stand apart in the source and are kept apart here. Marks after values point to notes of the source that are not given here. Ends that are not written are not given here.
# Tests used:
# Type in all cases: cell-based
# Settings in all cases: 72 h
# [1] = tested on: human non-small cell lung cancer cells NCI-H1299
# [2] = tested on: human chronic myeloid leukemia cells K562
# Procedure: (§1) Human pancreatic cancer, hepatocellular carcinoma, colorectal cancer, ovarian cancer, cervical cancer, bladder cancer, melanoma, glioblastoma, neuroblastoma, glioma, osteosarcoma, myeloma, lymphoma, hematologic malignancies, and cholangiocarcinoma cells were cultured in an incubator at 37° C. with 5% CO2 until the density reached 90%, then digested and collected with trypsin, resuspended in a culture medium, and counted under a microscope; the cell concentration was adjusted to about 1.0×10^5 cells/mL; and the cell suspension was inoculated into a 96-well plate, with 100 μL per well, and incubated overnight in an incubator at 37° C. with 5% CO2. After the cells were completely attached to the wall, 100 μL of micropeptides MIAC with concentrations of 50 μM, 100 μM and 200 μM were added to form an administration group; and a culture medium without any medicament was used as a negative control group. After continuing incubation for 72 h, 100 μL of CCK8 was added to each well of the 96-well plate for dissolving. The absorbance OD was measured at a detection wavelength of 450 nm with a microplate reader, and the proliferation inhibition (PI) was calculated using the formula of PI (%)=1-administration group/negative control group. The experiment was repeated 3 times independently, the results were expressed as Mean±SD, and a statistical T test was performed, where *P<0.05 indicated a significant difference and **P<0.01 indicated an extremely significant difference.
# [3] = tested on: human histiocytic lymphoma cells U937
# Procedure: as §1
# [4] = tested on: human hepatocellular carcinoma cells HCCLM3
# Procedure: as §1
# [5] = tested on: human T-cell acute lymphoblastic leukemia cells JurKat
# Procedure: as §1
# [6] = tested on: peripheral blood B lymphocytes RPMI-8226 in human multiple myeloma
# Procedure: as §1
# [7] = tested on: human pancreatic cancer cells MIP-PaCa-2
# Procedure: as §1
# [8] = tested on: human bladder cancer cells EJ
# Procedure: as §1
# [9] = tested on: human osteogenic sarcoma cells Saos-2
# Procedure: as §1
# [10] = tested on: human myeloma cells NCI-H929
# Procedure: as §1
# [11] = tested on: human malignant melanoma cells SK-mel-2
# Procedure: as §1
# [12] = tested on: human hepatocellular carcinoma cells HepG2
# Procedure: as §1
# [13] = tested on: human cerebral astrocytic glioblastoma cells U87-MG
# Procedure: as §1
# [14] = tested on: human hepatocellular carcinoma cells SMMC-7721
# Procedure: as §1
# [15] = tested on: human acute promyelocytic leukemia cells NB4
# Procedure: as §1
# [16] = tested on: human bladder transitional cell carcinoma cells T24
# Procedure: as §1
# [17] = tested on: human cervical cancer cells SIHA
# Procedure: as §1
# [18] = tested on: human monocytic leukemia cells Thp-1
# Procedure: as §1
# [19] = tested on: human ovarian cancer cells SKOV3
# Procedure: as §1
# [20] = tested on: human breast cancer cells MX-1
# [21] = tested on: human gastric carcinoma cells BGC-823
# [22] = tested on: human gastric carcinoma cells BGC-803
sequence,measurement,setting,value
"MERAGVPGFSPRRSSVEAKMQSTSCSVRKSSTVTAWPAVVLLLSWGQRRGG [MIAC, micropeptide inhibiting actin cytoskeleton]",OD,"[1]; NCI-H1299, 50 μM",1.090 ± 0.022
same,OD,"[1]; NCI-H1299, 100 μM",0.754 ± 0.06
same,OD,"[1]; NCI-H1299, 200 μM",0.467 ± 0.012
same,OD,"[2]; K562, 50 μM",1.004 ± 0.012**
same,OD,"[2]; K562, 100 μM",0.544 ± 0.062**
same,OD,"[2]; K562, 200 μM",0.338 ± 0.025**
same,OD,"[3]; U937, 50 μM",1.069 ± 0.028
same,OD,"[3]; U937, 100 μM",0.821 ± 0.047**
same,OD,"[3]; U937, 200 μM",0.684 ± 0.046**
same,OD,"[4]; HCCLM3, 50 μM",1.420 ± 0.054
same,OD,"[4]; HCCLM3, 100 μM",0.981 ± 0.019**
same,OD,"[4]; HCCLM3, 200 μM",0.706 ± 0.041**
same,OD,[5]; 50 μM,0.984 ± 0.032
same,OD,[5]; 100 μM,0.730 ± 0.032**
same,OD,[5]; 200 μM,0.559 ± 0.038**
same,OD,"[6]; RPMI-8226, 50 μM",2.008 ± 0.023
same,OD,"[6]; RPMI-8226, 100 μM",1.001 ± 0.027**
same,OD,"[6]; RPMI-8226, 200 μM",0.522 ± 0.028**
same,OD,"[7]; MIP-PaCa-2, 50 μM",0.898 ± 0.035
same,OD,"[7]; MIP-PaCa-2, 100 μM",0.866 ± 0.035**
same,OD,"[7]; MIP-PaCa-2, 200 μM",0.571 ± 0.038**
same,OD,[8]; 50 μM,1.126 ± 0.017
same,OD,[8]; 100 μM,0.891 ± 0.009**
same,OD,[8]; 200 μM,0.628 ± 0.045**
same,OD,"[9]; Saos-2, 50 μM",1.198 ± 0.067
same,OD,"[9]; Saos-2, 100 μM",0.946 ± 0.016**
same,OD,"[9]; Saos-2, 200 μM",0.627 ± 0.052**
same,OD,"[10]; NCI-H929, 50 μM",0.860 ± 0.012**
same,OD,"[10]; NCI-H929, 100 μM",0.427 ± 0.016**
same,OD,"[10]; NCI-H929, 200 μM",0.263 ± 0.026**
same,OD,"[11]; SK-mel-2, 50 μM",1.302 ± 0.043**
same,OD,"[11]; SK-mel-2, 100 μM",0.822 ± 0.060**
same,OD,"[11]; SK-mel-2, 200 μM",0.570 ± 0.011**
same,OD,"[12]; HepG2, 50 μM",0.575 ± 0.047**
same,OD,"[12]; HepG2, 100 μM",0.267 ± 0.022**
same,OD,"[12]; HepG2, 200 μM",0.169 ± 0.015**
same,OD,[13]; 50 μM,0.951 ± 0.019
same,OD,[13]; 100 μM,0.785 ± 0.029**
same,OD,[13]; 200 μM,0.656 ± 0.030**
same,OD,"[14]; SMMC-7721, 50 μM",1.292 ± 0.012
same,OD,"[14]; SMMC-7721, 100 μM",1.032 ± 0.011**
same,OD,"[14]; SMMC-7721, 200 μM",0.674 ± 0.033**
same,OD,"[15]; NB4, 50 μM",1.177 ± 0.042**
same,OD,"[15]; NB4, 100 μM",0.826 ± 0.066**
same,OD,"[15]; NB4, 200 μM",0.624 ± 0.052**
same,OD,"[16]; T24, 50 μM",1.125 ± 0.010
same,OD,"[16]; T24, 100 μM",0.730 ± 0.085**
same,OD,"[16]; T24, 200 μM",0.364 ± 0.043**
same,OD,[17]; 50 μM,0.844 ± 0.099**
same,OD,[17]; 100 μM,0.755 ± 0.103**
same,OD,[17]; 200 μM,0.261 ± 0.052**
same,OD,"[18]; Thp-1, 50 μM",1.265 ± 0.059
same,OD,"[18]; Thp-1, 100 μM",0.841 ± 0.058**
same,OD,"[18]; Thp-1, 200 μM",0.681 ± 0.045**
same,OD,"[19]; SKOV3, 50 μM",1.244 ± 0.282**
same,OD,"[19]; SKOV3, 100 μM",0.843 ± 0.049**
same,OD,"[19]; SKOV3, 200 μM",0.727 ± 0.038**
same,OD,"[20]; MX-1, 50 μM",1.020 ± 0.028
same,OD,"[20]; MX-1, 100 μM",0.808 ± 0.102
same,OD,"[20]; MX-1, 200 μM",0.630 ± 0.051
same,OD,"[21]; BGC-823, 50 μM",0.950 ± 0.045
same,OD,"[21]; BGC-823, 100 μM",0.556 ± 0.029
same,OD,"[21]; BGC-823, 200 μM",0.327 ± 0.025
same,OD,"[22]; BGC-803, 50 μM",1.379 ± 0.025
same,OD,"[22]; BGC-803, 100 μM",0.960 ± 0.059
same,OD,"[22]; BGC-803, 200 μM",0.715 ± 0.015
